This passage reports T/C results from PubChem BioAssay AID248 (DTP/NCI, 2004).

Toxic doses and inconclusive results are not listed.

This experiment relates to L1210 leukemia ip in BDF1 mice, survival T/C. Put plainly: NCI In Vivo Anticancer Drug Screen. Data for tumor model L1210 Leukemia (intraperitoneal) in B6D2F1 (BDF1) mice. The conditions noted are these: endpoint: mean survival time, higher = longer survival. The method in brief: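 Read-out is survival time, reported as the treated-group measurement over the vehicle-control measurement.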

Where [1] appears, read: dose: 100.0 mg/kg/injection, schedule: Q01DX009 (ip), vehicle: Klucel (hydroxypropylcellulose) (HPC).
Where [2] appears, read: dose: 100.0 mg/kg/injection, schedule: Q04DX003 (ip), vehicle: Klucel (hydroxypropylcellulose) (HPC).
Setting [3] is: dose: 200.0 mg/kg/injection, schedule: Q04DX003 (ip), vehicle: Klucel (hydroxypropylcellulose) (HPC).
[4] abbreviates: dose: 400.0 mg/kg/injection, schedule: Q04DX003 (ip), vehicle: Klucel (hydroxypropylcellulose) (HPC).
Setting [5] is: dose: 100.0 mg/kg/injection, schedule: Q04DX002 (ip), vehicle: saline with Tween-80.
Where [6] appears, read: dose: 200.0 mg/kg/injection, schedule: Q04DX002 (ip), vehicle: saline with Tween-80.
[7] abbreviates: dose: 400.0 mg/kg/injection, schedule: Q04DX002 (ip), vehicle: saline with Tween-80.
Where [8] appears, read: dose: 100.0 mg/kg/injection, schedule: Q01DX001 (ip), vehicle: saline.
Where [9] appears, read: dose: 200.0 mg/kg/injection, schedule: Q01DX001 (ip), vehicle: saline.
[10] abbreviates: dose: 100.0 mg/kg/injection, schedule: Q01DX009 (ip), vehicle: saline with Tween-80.
[11] abbreviates: dose: 200.0 mg/kg/injection, schedule: Q01DX009 (ip), vehicle: saline with Tween-80.
[12] abbreviates: dose: 50.0 mg/kg/injection, schedule: Q01DX001 (ip), vehicle: saline.
Setting [13] is: dose: 400.0 mg/kg/injection, schedule: Q01DX001 (ip), vehicle: saline.

Consider `CCC1(O)CC2CN(CCc3c([nH]c4ccccc34)C(C(=O)OC)(c3cc4c(cc3OC)N(C)C3C(O)(C(=O)NCCO)C(O)C5(CC)C=CCN6CCC43C65)C2)C1` (configuration not stated), for which the T/C is, setting by setting: (dose: 0.16 mg/kg/injection, schedule: Q01DX009 (ip), vehicle: saline) 123 % of control; (dose: 0.39 mg/kg/injection, schedule: Q04DX003 (ip), vehicle: saline) 158 % of control; (dose: 1.2 mg/kg/injection, schedule: Q01DX009 (ip), vehicle: saline) 116 % of control; (dose: 389.0 micrograms/kg/injection, schedule: Q04DX003 (ip), vehicle: saline) 118 % of control; (dose: 648.0 micrograms/kg/injection, schedule: Q04DX003 (ip), vehicle: saline) 106 % of control; (dose: 1080.0 micrograms/kg/injection, schedule: Q04DX003 (ip), vehicle: saline) 123 % of control. Besides, for the setting “dose: 5000.0 micrograms/kg/injection, schedule: Q04DX003 (ip), vehicle: saline”, the T/C is 115 % of control.

Regarding `COc1c(/C=C/[N+](=O)[O-])ccc2c(C)c(C)oc12`, the T/C runs as follows: (dose: 25.0 mg/kg/injection, schedule: Q01DX009 (ip), vehicle: Klucel (hydroxypropylcellulose) (HPC)) 98 % of control; (dose: 50.0 mg/kg/injection, schedule: Q01DX009 (ip), vehicle: Klucel (hydroxypropylcellulose) (HPC)) 95 % of control; under setting [1], 101 % of control; under setting [2], 98 % of control; under setting [3], 87 % of control; under setting [4], 92 % of control.

Consider `Cc1cc(Cl)cc(Cl)c1OCC(=O)Nc1cc(Cl)ccc1Cl`, for which the T/C by setting is: under setting [5], 90 % of control; under setting [6], 86 % of control; under setting [7], 86 % of control.

As for `CC(=O)Nc1ccc(Cc2ccc(Br)cc2)cc1`, the T/C is, setting by setting: under setting [8], 96 % of control; under setting [9], 106 % of control.

`CC1(C(=O)c2ccccc2)CN(C(C)(C)C)C1c1ccccc1` (configuration not stated): the T/C (dose: 50.0 mg/kg/injection, schedule: Q01DX001 (ip), vehicle: Klucel (hydroxypropylcellulose) (HPC)) is 97 % of control; the T/C (dose: 100.0 mg/kg/injection, schedule: Q01DX001 (ip), vehicle: Klucel (hydroxypropylcellulose) (HPC)) is 95 % of control; the T/C (dose: 200.0 mg/kg/injection, schedule: Q01DX001 (ip), vehicle: Klucel (hydroxypropylcellulose) (HPC)) was 94 % of control.

For `O=C(CCN1CC1)Nc1ccc(Cc2ccc(NC(=O)CCN3CC3)cc2)cc1`, the T/C was 101 % of control (dose: 20.0 mg/kg/injection, schedule: Q04DX003 (ip), vehicle: Klucel (hydroxypropylcellulose) (HPC)); 117 % of control (dose: 40.0 mg/kg/injection, schedule: Q04DX003 (ip), vehicle: Klucel (hydroxypropylcellulose) (HPC)); 106 % of control (dose: 80.0 mg/kg/injection, schedule: Q04DX003 (ip), vehicle: Klucel (hydroxypropylcellulose) (HPC)).

Consider `Cc1ccc(C(C)C)cc1NC(=O)Nc1ccccc1F`, for which the T/C under setting [1] is 91 % of control and the T/C (dose: 200.0 mg/kg/injection, schedule: Q01DX009 (ip), vehicle: Klucel (hydroxypropylcellulose) (HPC)) was 86 % of control.

With `O=[N+]([O-])c1ccc(N=C/C=C/c2ccccc2)cc1`, the T/C under setting [10] is 88 % of control; the T/C under setting [11] is 94 % of control; the T/C (dose: 400.0 mg/kg/injection, schedule: Q01DX009 (ip), vehicle: saline with Tween-80) was 104 % of control.

With `S=C(C#Cc1ccccc1)Nc1ccccc1`, the T/C is 93 % of control under setting [5] and 86 % of control under setting [6].

Regarding `Cn1cc(N)c(=O)[nH]c1=O`, the T/C was 101 % of control under setting [12], 101 % of control under setting [8], 101 % of control under setting [9] and 103 % of control under setting [13].

For `c1ccc2nc(-c3cc4ccccc4s3)ccc2c1`, the T/C by setting is: (dose: 100.0 mg/kg/injection, schedule: Q01DX009 (ip), vehicle: saline sonified) 96 % of control; under setting [2], 97 % of control; (dose: 200.0 mg/kg/injection, schedule: Q01DX009 (ip), vehicle: saline sonified) 100 % of control; under setting [3], 95 % of control; (dose: 400.0 mg/kg/injection, schedule: Q01DX009 (ip), vehicle: saline sonified) 103 % of control; under setting [4], 101 % of control.

As for `CC(C)(C)NC(=O)NCc1ccc(Cl)cc1`, the T/C is, setting by setting: (dose: 100.0 mg/kg/injection, schedule: Q04DX002 (ip), vehicle: Klucel (hydroxypropylcellulose) (HPC)) 100 % of control; (dose: 200.0 mg/kg/injection, schedule: Q04DX002 (ip), vehicle: Klucel (hydroxypropylcellulose) (HPC)) 88 % of control; (dose: 400.0 mg/kg/injection, schedule: Q04DX002 (ip), vehicle: Klucel (hydroxypropylcellulose) (HPC)) 111 % of control.

With `c1ccc2c(c1)cnn1cnnc21`, the T/C is 115 % of control (dose: 75.0 mg/kg/injection, schedule: Q01DX001 (ip), vehicle: carboxymethylcellulose (CMC)) and 97 % of control (dose: 150.0 mg/kg/injection, schedule: Q01DX001 (ip), vehicle: carboxymethylcellulose (CMC)).

Regarding `O=[N+]([O-])c1ccc(OCCOc2ccc([N+](=O)[O-])cc2)cc1`, the T/C is 103 % of control under setting [8], 107 % of control under setting [9] and 97 % of control under setting [13].

Consider `CCOC(=O)C1C2c3ccccc3C(C1C(=O)OCC)[n+]1ccccc12` (configuration not stated), for which the T/C by setting is: (dose: 100.0 mg/kg/injection, schedule: Q04DX003 (ip), vehicle: saline) 100 % of control; (dose: 200.0 mg/kg/injection, schedule: Q04DX003 (ip), vehicle: saline) 97 % of control; (dose: 400.0 mg/kg/injection, schedule: Q04DX003 (ip), vehicle: saline) 100 % of control.

As to `CC(C)=CCC(C#N)(CCN(C)C)c1ccc2ccccc2c1` (configuration not stated), the T/C was 95 % of control (dose: 25.0 mg/kg/injection, schedule: Q01DX009 (ip), vehicle: saline); 97 % of control (dose: 50.0 mg/kg/injection, schedule: Q01DX009 (ip), vehicle: saline); 95 % of control (dose: 100.0 mg/kg/injection, schedule: Q01DX009 (ip), vehicle: saline).

`CCOC(=O)NOP(=O)(N1CC1)N1CC1`: the T/C (dose: 100.0 mg/kg/injection, schedule: Q04DX002 (ip), vehicle: saline) is 153 % of control.

Turning to `CCOC(=O)/C=C1\NC(=O)N(CCCN2C(=O)N/C(=C\C(=O)OCC)C2=O)C1=O`, under setting [10], the T/C was 97 % of control.

Regarding `C=CC1CN2CCC1CC2C(=O)c1ccnc2ccc(OC)cc12` (configuration not stated), the T/C was 98 % of control under setting [12], 102 % of control under setting [8], 95 % of control under setting [9] and 101 % of control under setting [13].

As to `CC1=C(C)CC2(C)N(C)CC2(C)C1` (configuration not stated), the T/C by setting is: (dose: 37.0 mg/kg/injection, schedule: Q04DX003 (ip), vehicle: other) 104 % of control; (dose: 37.5 mg/kg/injection, schedule: Q01DX009 (ip), vehicle: other) 110 % of control; (dose: 75.0 mg/kg/injection, schedule: Q01DX001 (ip), vehicle: other) 107 % of control; (dose: 75.0 mg/kg/injection, schedule: Q01DX009 (ip), vehicle: other) 100 % of control; (dose: 75.0 mg/kg/injection, schedule: Q04DX003 (ip), vehicle: other) 101 % of control; (dose: 150.0 mg/kg/injection, schedule: Q01DX001 (ip), vehicle: other) 115 % of control. In addition, the T/C is, setting by setting: (dose: 150.0 mg/kg/injection, schedule: Q01DX009 (ip), vehicle: other) 93 % of control; (dose: 150.0 mg/kg/injection, schedule: Q04DX003 (ip), vehicle: other) 106 % of control.

Turning to `O=C(Nc1ccc([N+](=O)[O-])cc1)N1CCCCC1`, the T/C was 95 % of control under setting [8], 95 % of control under setting [9] and 97 % of control under setting [13].

Consider `CCOC(=O)C1(C2=NC(C)(C)CC(C)O2)CCCCC1` (configuration not stated), for which the T/C (dose: 100.0 mg/kg/injection, schedule: Q01DX009 (ip), vehicle: other) was 102 % of control; the T/C (dose: 200.0 mg/kg/injection, schedule: Q01DX009 (ip), vehicle: other) is 100 % of control; the T/C (dose: 400.0 mg/kg/injection, schedule: Q01DX009 (ip), vehicle: other) is 107 % of control.

For `CC(=O)Nc1ccc(/C=N/Nc2c([N+](=O)[O-])cc(C(F)(F)F)cc2[N+](=O)[O-])cc1`, the T/C was 100 % of control under setting [10] and 96 % of control under setting [11].

As for `OCCNC(=S)Nc1cccc(C(F)(F)F)c1`, the T/C by setting is: under setting [10], 100 % of control; under setting [5], 91 % of control; under setting [11], 97 % of control; under setting [6], 98 % of control; under setting [7], 112 % of control.
